# Values of other authors as cited in patent publication US9260760B2, “Method for determining complete response to anticancer therapy” (Board of Regents, The University of Texas System, priority 2012, dated 2016).
# Like-named read-outs stand apart in the source and are kept apart here.
# Columns and labels:
# [1] = tested on: metastatic colorectal cancer; details: cited from earlier work
# [2] = cited from earlier work
smiles,measurement,setting,value
"CCCCCOC(=O)Nc1nc(=O)n([C@@H]2O[C@H](C)[C@@H](O)[C@H]2O)cc1F [Capecitabine, capecitabine]",Complete response (%),[1]; first-line therapy,3%
same,Median OS (months),[1]; first-line therapy,12.4-13.2 months
same,Median PFS (months),[1]; first-line therapy,4.2 months
same,Response rate (%),[1]; first-line therapy,19-25%
same,Stable disease (%),[1]; first-line therapy,50%
same,time at which half of the patients experienced tumor progression,[1]; monotherapy capecitabine,2-4 months
same,Complete response (%),[1]; second-line therapy,0%
same,Median OS (months),[1]; second-line therapy,12.2 months
same,Median PFS (months),[1]; second-line therapy,2.1 months
same,Response rate (%),[1]; second-line therapy,0%
same,Stable disease (%),[1]; second-line therapy,50%
same,grade 3 HFS,[2]; capecitabine at 1250 mg/m2/d,≤ 17%
same,patients with HFS onset within six weeks,[2]; capecitabine at 1250 mg/m2/d,93%
same,patients with most severe HFS episode within six weeks,[2]; capecitabine at 1250 mg/m2/d,67.9%
same,HFS,"[2]; capecitabine starting at 750-1000 mg/m2/d bid with irinotecan (Patt et al., 2004)",35%
same,incidence of grade ⅔ HFS,"[2]; earlier study, capecitabine 1000 mg/m2/d bid (Lin et al., 2002)",34.2%
